Results as given in patent US9725414B2, “Fungicidal N-bicycloalkyl and N-tricycloalkyl pyrazole-4-(thio)carboxamide derivatives” (priority 2011, dated 2017).
Like-named read-outs stand apart in the source and are kept apart here.

What was measured:
Puccinia recondita = assay: Example M: in vivo preventive test on Puccinia recondita (brown rust on wheat); conditions: 500 ppm of active ingredient, grading 12 days after contamination
Method: In Vivo Preventive Test on Puccinia recondita (Brown Rust on Wheat) […] Wheat plants (“Scipion” variety), sown in starter cups on a 50/50 peat soil pozzolana substrate and grown at 22° C., are treated at the 1 leaf stage (10 cm height) by spraying with the active ingredient prepared as described above. Plants, used as controls, are treated with the mixture of acetone/tween/DMSO/water not containing the active material. After 24 hours, the plants are contaminated by spraying the leaves with an aqueous suspension of Puccinia recondite spores (100 000 spores per mL). The spores are collected from an infected plant and are suspended in water containing 2.5 mL/L of Tween 80 at 10%. […] Grading (% of efficacy) is carried out 12 days after the contamination, in comparison with the control plants.

Pyrenophora teres [1] = assay: Example F: in vivo preventive test on Pyrenophora teres (barley), acetone/tween/DMSO preparation; conditions: grading 14 days after contamination
Method: In Vivo Preventive Test on Pyrenophora teres (Barley) […] Barley plants (“Plaisant” variety), sown in starter cups on a 50/50 peat soil pozzolana substrate and grown at 22° C., are treated at the 1 leaf stage (10 cm height) by spraying with the active ingredient prepared as described above. Plants, used as controls, are treated with the mixture of acetone/tween/DMSO/water not containing the active material. After 24 hours, the plants are contaminated by spraying the leaves with an aqueous suspension of Pyrenophora teres spores (12 000 spores per mL). The spores are collected from a 12-day-old culture. […] Grading (% of efficacy) is carried out 14 days after the contamination, in comparison with the control plants.

Botrytis cinerea = assay: Example P: in vivo preventive test on Botrytis cinerea (grey mould), gherkin plants; conditions: 500 ppm of active ingredient, grading 4 to 5 days after contamination
Method: In Vivo Preventive Test on Botrytis cinerea (Grey Mould) […] Gherkin plants (“Vert petit de Paris” variety), sown in starter cups on a 50/50 peat soil pozzolana substrate and grown at 24° C. are treated at the Z11 cotyledon stage by spraying with the active ingredient prepared as described above. Plants, used as controls, are treated with the mixture of acetone/tween/DMSO/water not containing the active material. After 24 hours, the plants are contaminated by spraying the cotyledons with an aqueous suspension of cryopreserved Botrytis cinerea spores (50 000 spores per mL). The spores are suspended in a nutrient solution composed of 10 g/L of PDB, 50 g/L of D-Fructose, 2 g/L of NH4NO3 and 1 g/L of KH2PO4. The contaminated gherkin plants are incubated at 17° C. and at 90% relative humidity. Grading (% of efficacy) is carried out 4 to 5 days after the contamination, in comparison with the control plants.

Sphaerotheca fuliginea = assay: Example B: in vivo preventive test on Sphaerotheca fuliginea (powdery mildew on cucurbits), gherkin plants; conditions: 500 ppm of active ingredient, grading 12 days after contamination
Method: In Vivo Preventive Test on Sphaerotheca fuliginea (Powdery Mildew on Cucurbits) […] Gherkin plants (“Vert petit de Paris” variety), sown in starter cups on a 50/50 peat soil-pozzolana substrate and grown at 24° C. are treated at the Z11 cotyledon stage by spraying with the active ingredient prepared as described above. Plants, used as controls, are treated with the mixture of acetone/tween/DMSO/water not containing the active material. After 24 hours, the plants are contaminated by spraying the cotyledons with an aqueous suspension of Sphaerotheca fuliginea spores (100 000 spores per mL). The spores are collected from infected plants.

Uromyces appendiculatus = assay: Example Q: in vivo preventive test on Uromyces appendiculatus (bean rust); conditions: Uromyces appendiculatus on bean plants, 500 ppm of active ingredient, grading 11 days after contamination
Method: In Vivo Preventive Test on Uromyces appendiculatus (Bean Rust) […] Bean plants (“Saxa” variety), sown in starter cups on a 50/50 peat soil pozzolana substrate and grown at 24° C., are treated at the 2 leaf stage (9 cm height) by spraying with the active ingredient prepared as described above. Plants, used as controls, are treated with the mixture of acetone/tween/DMSO/water not containing the active material. After 24 hours, the plants are contaminated by spraying the leaves with an aqueous suspension of Uromyces appendiculatus spores (150 000 spores per mL). The spores are collected from infected plants and are suspended in water containing 2.5 mL/L of Tween 80 at 10%. […] Grading (% of efficacy) is carried out 11 days after the contamination, in comparison with the control plants.

[2] = log P by HPLC on reversed-phase column (C 18), EEC Directive 79831 Annex V.A8; assay type: physicochemical
Method: In table 1, the log P values were determined in accordance with EEC Directive 79831 Annex V.A8 by HPLC (High Performance Liquid Chromatography) on a reversed-phase column (C 18), using the method described below: Temperature: 40° C.; Mobile phases: 0.1% aqueous formic acid and acetonitrile; linear gradient from 10% acetonitrile to 90% acetonitrile. Calibration was carried out using unbranched alkan-2-ones (comprising 3 to 16 carbon atoms) with known log P values (determination of the log P values by the retention times using linear interpolation between two successive alkanones). lambda-max-values were determined using UV-spectra from 200 nm to 400 nm and the peak values of the chromatographic signals.

Septoria tritici = assay: Example I: in vivo preventive test on Septoria tritici (wheat), acetone/tween/DMSO preparation; conditions: 500 ppm of active ingredient, grading 24 days after contamination
Method: In Vivo Preventive Test on Septoria tritici (Wheat) […] Wheat plants (“Scipion” variety), sown in starter cups on a 50/50 peat soil pozzolana substrate and grown at 22° C., are treated at the 1 leaf stage (10 cm height) by spraying with the active ingredient prepared as described above. Plants, used as controls, are treated with the mixture of acetone/tween/DMSO/water not containing the active material. After 24 hours, the plants are contaminated by spraying the leaves with an aqueous suspension of cryopreserved Septoria tritici spores (500 000 spores per mL). The contaminated wheat plants are incubated for 72 hours at 18° C. and at 100% relative humidity, and then for 21 days at 90% relative humidity. Grading (% of efficacy) is carried out 24 days after the contamination, in comparison with the control plants.

Pyrenophora teres [3] = assay: Example E: in vivo preventive test on Pyrenophora teres (barley), DMF/emulsifier preparation; conditions: 500 ppm of active ingredient, evaluated 7-9 days after inoculation
Method: In Vivo Preventive Test on Pyrenophora teres (Barley) Solvent: 49 parts by weight of N,N-dimethylformamide Emulsifier: 1 part by weight of alkylaryl polyglycol ether To produce a suitable preparation of active compound, 1 part by weight of active compound is mixed with the stated amounts of solvent and emulsifier, and the concentrate is diluted with water to the desired concentration. To test for preventive activity, young plants are sprayed with the preparation of active compound at the stated rate of application. One day after this treatment, the plants are inoculated with an aqueous spore suspension of Pyrenophora teres. The plants remain for 48 hours in an incubation cabinet at 22° C. and a relative atmospheric humidity of 100%.

Alternaria solani = assay: Example C: in vivo preventive test on Alternaria solani (tomato); conditions: 500 ppm of active ingredient, evaluated 7 days after inoculation
Method: In Vivo Preventive Test on Alternaria solani (Tomato) Solvent: 49 parts by weight of N,N-dimethylformamide Emulsifier: 1 part by weight of alkylarylpolyglycolether To produce a suitable preparation of active compound, 1 part by weight of active compound is mixed with the stated amounts of solvent and emulsifier, and the concentrate is diluted with water to the desired concentration. To test for preventive activity, young plants are sprayed with the preparation of active compound at the stated rate of application. One day after this treatment, the plants are inoculated with an aqueous spore suspension of Alternaria solani. The plants remain for one day in an incubation cabinet at approximately 22° C. and a relative atmospheric humidity of 100%. Then the plants are placed in an incubation cabinet at approximately 20° C. and a relative atmospheric humidity of 96%.

Alternaria brassicae = assay: Example D: in vivo preventive test on Alternaria brassicae (leaf spot on radish); conditions: 100 ppm of active ingredient, grading 6 days after contamination
Method: In Vivo Preventive Test on Alternaria brassicae (Leaf Spot on Radish) […] Radish plants (“Pernod Clair” variety), sown in starter cups on a 50/50 peat soil pozzolana substrate and grown at 17° C., are treated at the cotyledon stage by spraying with the active ingredient prepared as described above. Plants, used as controls, are treated with the mixture of acetone/tween/DMSO/water not containing the active material. After 24 hours, the plants are contaminated by spraying the cotyledons with an aqueous suspension of Alternaria brassicae spores (50 000 spores per mL). The spores are collected from a 15-day-old culture. The contaminated radish plants are incubated at 20° C. and at 100% relative humidity. Grading (% of efficacy) is carried out 6 days after the contamination, in comparison with the control plants.

[4] = 500 ppm of active ingredient, barley
[5] = HPLC reversed-phase C 18, 40° C., 0.1% aqueous formic acid and acetonitrile gradient, several values = mixture of two or more isomers
[6] = Pyrenophora teres on barley, 100 ppm of active ingredient

CON(C(=O)c1cn(C)nc1C(F)F)C(C)C1CC2CCC1C2 (stereo not shown) [Example 100]
Efficacy (Puccinia recondita): 90% | Efficacy (Pyrenophora teres [1]; [4]): 100% | Efficacy (Botrytis cinerea): 100% | Efficacy (Sphaerotheca fuliginea): 100% | Efficacy (Uromyces appendiculatus): 100% | logP [2, 5]: 3.42

Cn1nc(C(F)F)c(C(=O)NC23CC4CC(CC(C4)C2)C3)c1F [Example 56]
Efficacy (Botrytis cinerea): 100% | Efficacy (Septoria tritici): 83% | logP [2]: 3.57

Cn1nc(C(F)F)c(C(=O)N(C2CC2)C2CCC3CCCC3C2)c1Cl (mixture of isomers) [Example 21]
Efficacy (Puccinia recondita): 94% | Efficacy (Pyrenophora teres [3]): 100% | Efficacy (Uromyces appendiculatus): 98% | Efficacy (Alternaria solani): 90%

Cn1nc(C(F)F)c(C(=O)N(C2CC2)C2CCC3CCCCC3C2)c1F (mixture of isomers) [Example 38]
Efficacy (Puccinia recondita): 100% | Efficacy (Pyrenophora teres [1]; [4]): 100% | Efficacy (Pyrenophora teres [3]): 100% | Efficacy (Sphaerotheca fuliginea): 93% | Efficacy (Septoria tritici): 96% | Efficacy (Uromyces appendiculatus): 100% | Efficacy (Alternaria solani): 95%

Cn1cc(C(=O)NC2CCC3CCCC32)c(C(F)F)n1 (stereo not shown) [Example 1]
Efficacy (Puccinia recondita): 94% | Efficacy (Septoria tritici): 80% | Efficacy (Uromyces appendiculatus): 95% | logP [2, 5]: 2.51

CC1C(NC(=O)c2cn(C)nc2C(F)F)CC2CC1C2(C)C (stereo not shown) [Example 52]
Efficacy (Botrytis cinerea): 80% | logP [2]: 3.19

CC1C(NC(=O)c2c(C(F)F)nn(C)c2Cl)CC2CC1C2(C)C (stereo not shown) [Example 51]
Efficacy (Botrytis cinerea): 95% | logP [2]: 3.79

Cn1cc(C(=O)N(CC2CCCC3CCCC32)C2CC2)c(C(F)F)n1 (mixture of isomers) [Example 61]
Efficacy (Pyrenophora teres [1]; [6]): 100% | Efficacy (Alternaria brassicae): 92%

Cn1nc(C(F)F)c(C(=O)N(CC2CCCC3CCCC32)C2CC2)c1F (mixture of isomers) [Example 60]
Efficacy (Pyrenophora teres [1]; [6]): 98% | Efficacy (Alternaria brassicae): 100%

CN(C(=O)c1cn(C)nc1C(F)F)C1CCC2CCCCC21 (stereo not shown) [Example 9]
Efficacy (Pyrenophora teres [1]; [6]): 75% | logP [2]: 2.88 | Efficacy (Alternaria brassicae): 100%

Cn1cc(C(=O)N(C2CC2)C2CC3CCCCC3C2)c(C(F)F)n1 (stereo not shown) [Example 13]
Efficacy (Pyrenophora teres [1]; [4]): 97% | Efficacy (Botrytis cinerea): 100% | Efficacy (Sphaerotheca fuliginea): 80% | Efficacy (Septoria tritici): 90% | Efficacy (Uromyces appendiculatus): 91% | logP [2, 5]: 3.61

Cn1cc(C(=O)NC2CC3CCC2C3)c(C(F)F)n1 (stereo not shown) [Example 46]
Efficacy (Botrytis cinerea): 88% | Efficacy (Septoria tritici): 75% | Efficacy (Uromyces appendiculatus): 85% | logP [2, 5]: 2.14

Cn1cc(C(=O)N(CC2CCC3CCCC3C2)C2CC2)c(C(F)F)n1 (stereo not shown) [Example 63]
Efficacy (Puccinia recondita): 81% | Efficacy (Pyrenophora teres [1]; [4]): 79% | Efficacy (Botrytis cinerea): 85% | Efficacy (Sphaerotheca fuliginea): 100% | Efficacy (Septoria tritici): 97% | logP [2, 5]: 3.92

Cn1nc(C(F)F)c(C(=O)NC2CC3CCC2C3)c1Cl (stereo not shown) [Example 47]
Efficacy (Pyrenophora teres [1]; [4]): 88% | Efficacy (Botrytis cinerea): 97% | Efficacy (Septoria tritici): 83% | Efficacy (Uromyces appendiculatus): 83% | logP [2, 5]: 2.64

CN(C(=O)c1c(C(F)F)nn(C)c1F)C1CCC2CCCCC21 (stereo not shown) [Example 8]
Efficacy (Pyrenophora teres [1]; [6]): 98% | logP [2]: 3.35 | Efficacy (Alternaria brassicae): 100%

Cn1cc(C(=O)N(CC2CCC3CCCC32)C2CC2)c(C(F)F)n1 (stereo not shown) [Example 59]
Efficacy (Puccinia recondita): 89% | Efficacy (Pyrenophora teres [1]; [4]): 100% | Efficacy (Botrytis cinerea): 100% | Efficacy (Sphaerotheca fuliginea): 100% | Efficacy (Uromyces appendiculatus): 75% | logP [2, 5]: 3.50

Cn1nc(C(F)F)c(C(=O)N(CC2CC3C=CC2C3)C2CC2)c1F (stereo not shown) [Example 73]
Efficacy (Pyrenophora teres [1]; [4]): 100% | Efficacy (Botrytis cinerea): 93% | logP [2]: 3.23

Cn1nc(C(F)F)c(C(=O)NC2CC3CCC2C3)c1F (stereo not shown) [Example 48]
Efficacy (Puccinia recondita): 75% | Efficacy (Pyrenophora teres [1]; [4]): 88% | Efficacy (Botrytis cinerea): 83% | Efficacy (Septoria tritici): 83% | Efficacy (Uromyces appendiculatus): 87% | logP [2, 5]: 2.46

CON(C(=O)c1c(C(F)F)nn(C)c1F)C(C)C1CC2CCC1C2 (stereo not shown) [Example 99]
Efficacy (Puccinia recondita): 95% | Efficacy (Pyrenophora teres [1]; [4]): 100% | Efficacy (Botrytis cinerea): 100% | Efficacy (Sphaerotheca fuliginea): 100% | logP [2, 5]: 3.67

CC1C(NC(=O)c2c(C(F)F)nn(C)c2Cl)CC2CC1C2(C)C (stereo not shown) [Example 53]
Efficacy (Pyrenophora teres [1]; [4]): 75% | Efficacy (Botrytis cinerea): 99% | Efficacy (Septoria tritici): 83% | logP [2, 5]: 3.79

CC1C(NC(=O)c2cn(C)nc2C(F)F)CC2CC1C2(C)C (stereo not shown) [Example 54]
Efficacy (Botrytis cinerea): 85% | logP [2]: 3.19

Cn1nc(C(F)F)c(C(=O)NC23CC4CC(CC(C4)C2)C3)c1Cl [Example 57]
Efficacy (Botrytis cinerea): 75% | Efficacy (Septoria tritici): 75% | logP [2]: 3.81
